From patent US5493007A, “Platelet aggregation inhibitors having high specificity for GPIIBIIIA” (Genentech, Inc., priority 1994, dated 1996)
Several values for one entry are separate records, joined by “and”; a condition that tells them apart may be missing. Equal entries are not always repeated. Where a SMILES comes first, the peptide text is derived from it. Bridges are numbered along the chain shown (N, C = ends). [ ]: non-standard residue; d: D form. Aad = N[C@@H](CCCC(=O)O)C(=O)O; Pen = CC(C)(S)[C@H](N)C(=O)O; Orn = NCCC[C@H](N)C(=O)O

Legend:
Assay type in all cases: in vivo
[1] = system: platelet rich plasma (PRP); experiment: Rabbit ex-vivo platelet aggregation (XPA), ADP-induced; settings: Example 1
Procedure: (§1) Catheters are flushed and locked after every sample.
[…] of PRP is placed in a disposable glass cuvette with a stir bar. The cuvette is placed in the temperature regulated light path of a light transmittance aggregometer (Chrono-log) and equilibrated to a 37° C. Baseline transmittance is recorded for 30 seconds, after which […] of ADP (1 mM) is added and the change in transmittance recorded. The maximum change from baseline (dT) is noted for each sample. The extent of inhibition of XPA that is produced by an inhibitor is calculated for each animal as follows: Mean dTs are calculated for the pre and post infusion values, and then, percent inhibition is calculated as (1-dt (post)/ddt (pre))×100.

Beagle dogs = experiment: Bleeding time, dog model; settings: for bleeding time during the infusion: dose printed for 7/46: bolus 125 μg/kg plus 3 μg/kg/min, 7/1 value is a mean
Procedure: (§2) Beagle dogs were premedicated with atropine (3 mg subcutaneously) and anesthetized with intravenous sodium pentobarbital solution (65 mg/ml, to effect, induction and maintenance). The dogs were placed in dorsal recumbency on heating pads, intubated, and placed on oxygen-room air mixture (free breathing). A pulse oximeter was attached and heart rate and oxygen saturation monitored. An indwelling catheter was placed in one cephalic vein through which normal saline drip (for patency) and maintenance anesthetic doses were administered, and in one saphenous vein through which test or control compound was bolused or infused.
At several timepoints bleeding times were measured. The forearm of the dog was closely shaven. A Surgicutt® automatic bleeding time device was employed to make an approximate 1 cm clean incision through the skin. Blood was blotted with the edge of a Whatman's #4 filter paper every 15 seconds. Bleeding time was measured as the time from incision to the last time blood was absorbed by the filter paper.

[2] = system: platelet rich plasma (PRP); experiment: Ex vivo platelet aggregation, dog model
Procedure: as §2
At each proscribed time point a 5 ml whole blood sample was withdrawn via jugular venipuncture for ex vivo platelet aggregation and complete blood cell count. Manual pressure was applied to the venipuncture site following blood withdrawal to minimize hematoma formation.
Approximately one ml of blood withdrawn at each timepoint was placed on EDTA (purple-top vacutainer) and used to measure the complete blood cell count on a Cell-Dyne 1500 automated hematology analyzer. 3.6 ml of blood withdrawn at each timepoint was placed on a 3.8% sodium citrate (1 part to 9 parts blood) and centrifuged at 12,000 rpm for 4 seconds in an Eppendorf microcentrifuge. The resultant platelet rich plasma (PRP) was pipetted off for use in ex vivo aggregation procedures.
Platelet aggregation was measured in a Payton dual-channel aggregometer. The equipment was calibrated with PRP assigned as 0% light transmission and PPP as 100% light transmission. PRP was allowed to rest at room temperature for 20 minutes following separation from whole blood. […] PRP was incubated at 37° C. in the aggregometer for approximately 5 minutes with the chart recorder on to establish a baseline. […] ADP (1 mM) was added to the PRP and the aggregation response (change in light transmission) recorded. An aliquot of the PRP was used to perform a platelet count on the Cell-Dyne 1500 automated hematology analyzer. [drawing 50] Example 7, Compound 1

[3] = system: New Zealand White rabbits; experiment: Rabbit peripheral blood flow (PBF) by observation of ear vessels
Procedure: as §1
For the experiments summarized in Table 1, PBF was monitored by observation of the condition of the blood vessels in the rabbits' ears, prior to and during the infusion. Normal flow is defined as ears that appear pink to red, with no visible constriction of the major blood vessels. Decreased flow applies to ears that have constricted vessels resulting in cold, pallid ears for up to 40 minutes following the start of the inhibitor infusion.

[4] = 300 μg/kg bolus plus an infusion of 7.2 μg/kg/min
[5] = 200 μg/kg bolus plus an infusion of 4.8 μg/kg/min

| SMILES | Rabbit % P.A. Inhibition (ex vivo) [1] | peripheral blood flow, result in words [3] | further results |
| --- | --- | --- | --- |
| N=C(N)NCCC[C@@H]1NC(=O)[C@@H](Cc2ccc(O)cc2)NC(=O)CSC[C@@H](C(=O)N[C@@H](CCCCN)C(N)=O)NC(=O)[C@H](CC(=O)O)NC(=O)CNC1=O [7/3, cyclo-S-acetyl-dTyr--Arg--Gly--Asp--Cys--Lys--NH2] ({CH2CO}-[dY]RGDCK-NH2; thioether N-5) | 97% | – | bleeding time, result in words (Beagle dogs; [4]): without prolongation of the bleeding time; inhibition of ex vivo aggregation [2, 4]: > 95% |
| N=C(N)NCCC[C@H](NC(=O)[C@H](Cc1ccc(O)cc1)NC(=O)[C@@H]1CSCC(=O)N[C@H](Cc2ccc(O)cc2)C(=O)N[C@@H](CCCNC(=N)N)C(=O)NCC(=O)N[C@@H](CC(=O)O)C(=O)N1)C(N)=O [7/7, cyclo-S-acetyl-dTyr--Arg--Gly--Asp--Cys--Tyr--Arg--NH2] ({CH2CO}-[dY]RGDCYR-NH2; thioether N-5) | 98% | – | – |
| N=C(N)NCCC[C@@H]1NC(=O)[C@@H](Cc2ccc(O)cc2)NC(=O)CSC[C@@H](C(=O)N[C@@H](CCC(N)=O)C(N)=O)NC(=O)[C@H](CC(=O)O)NC(=O)CNC1=O [7/27, cyclo-S-acetyl-dTyr--Arg--Gly--Asp--Cys--Gln--NH2] ({CH2CO}-[dY]RGDCQ-NH2; thioether N-5) | 72% and 99% | – | – |
| N=C(N)NCCC[C@H](NC(=O)[C@@H]1CSCC(=O)N[C@H](Cc2ccc(O)cc2)C(=O)N[C@@H](CCCNC(=N)N)C(=O)NCC(=O)N[C@@H](CC(=O)O)C(=O)N1)C(N)=O [7/1, cyclo-S-acetyl-dTyr--Arg--Gly--Asp--Cys--Arg--NH2] ({CH2CO}-[dY]RGDCR-NH2; thioether N-5) | 100% | no substantial increase in cutaneous bleeding time (1.17 times; dosed to 100% inhibition of platelet aggregation) or decrease in peripheral blood flow | bleeding time, preinfusion value (Beagle dogs; before infusion (baseline)): 3 min; bleeding time during the infusion (Beagle dogs): 6.25 min |
| N=C(N)NCCC[C@@H]1NC(=O)[C@@H](Cc2ccc(O)cc2)NC(=O)CSC[C@@H](C(=O)O)NC(=O)[C@H](CC(=O)O)NC(=O)CNC1=O [7/46, cyclo-S-acetyl-dTyr--Arg--Gly--Asp--Cys--OH] ({CH2CO}-[dY]RGDC-OH; thioether N-5) | 99% and 55% | – | bleeding time during the infusion (Beagle dogs): > 30 min; inhibition of ex vivo aggregation ([2]; bolus of 125 μg/kg plus an infusion of 3 μg/kg/min, throughout the infusion period): 100% |
| N=C(N)NCCC[C@@H]1NC(=O)[C@@H](Cc2ccc(O)cc2)NC(=O)C(CCCCN)SC[C@@H](C(=O)O)NC(=O)[C@H](CC(=O)O)NC(=O)CNC1=O (single isomer, unassigned) [9/10, cyclo-S-2-L-(6-aminocaproyl)-Lys--dTyr--Arg--Gly--Asp--Cys--OH] | 100% | – | – |
| CC1(C)SCC(=O)N[C@H](Cc2ccc(O)cc2)C(=O)N[C@@H](CCCCN)C(=O)NCC(=O)N[C@@H](CC(=O)O)C(=O)N[C@@H]1C(=O)N[C@@H](CCCCN)C(N)=O [7/17, cyclo-S-acetyl-dTyr--Lys--Gly--Asp--Pen--Lys--NH2] ({CH2CO}-[dY]KGD[Pen]K-NH2; thioether N-5) | 100% | without substantial increased cutaneous bleeding time or decreased peripheral blood flow | – |
| CC1(C)SCC(=O)N[C@H](Cc2ccc(O)cc2)C(=O)N[C@@H](CCCCN)C(=O)NCC(=O)N[C@@H](CC(=O)O)C(=O)N[C@@H]1C(=O)N[C@@H](CCCNC(=N)N)C(N)=O [7/16, cyclo-S-acetyl-dTyr--Lys--Gly--Asp--Pen--Arg--NH2] ({CH2CO}-[dY]KGD[Pen]R-NH2; thioether N-5) | – | without substantial increased cutaneous bleeding time or decreased peripheral blood flow | – |
| N=C(N)NCCC[C@@H]1NC(=O)[C@@H](Cc2ccc(O)cc2)NC(=O)CCC[C@@H](C(=O)N[C@@H](CCCCN)C(N)=O)NC(=O)[C@H](CC(=O)O)NC(=O)CNC1=O [10/20, cyclo(1-5)dTyr--Arg--Gly--Asp--L-α-aminoadipic acid-Lys--NH2] ([dY]RGD[Aad]K-NH2; lactam N-5) | 100% | – | – |
| N=C(N)NCCC[C@@H]1NC(=O)[C@@H](Cc2ccc(O)cc2)NC(=O)CSC[C@@H](C(=O)N[C@@H](CCCN)C(N)=O)NC(=O)[C@H](CC(=O)O)NC(=O)CNC1=O [7/5, cyclo-S-acetyl-dTyr--Arg--Gly--Asp--Cys--Orn--NH2] ({CH2CO}-[dY]RGDC[Orn]-NH2; thioether N-5) | 100% | – | bleeding time, result in words (Beagle dogs; [5]): minimal prolongation of bleeding; inhibition of aggregation [2, 5]: > 90% |
